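Briefly, cells in 96-well plates were exposed to five compound concentrations for 48 h, and endpoints were estimated by linear interpolation. GI50 is the concentration that inhibits growth by half.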 Active and inactive are the calls of the source. No stated cut-off is given here; in the data, active = GI50 up to about 1.1 µM and inactive = higher.
Columns and labels:
Experiment in all cases: NCI anticancer screen, dose series, 48 h
KM12 = test system: KM12
786-0 = test system: 786-0
SK-OV-3 = test system: SK-OV-3
A549 = test system: A549
Hs-578T = test system: Hs-578T
UO-31 = test system: UO-31
NCI-H23 = test system: NCI-H23
T47D = test system: T47D
A498 = test system: A498
MDA-MB-435 = test system: MDA-MB-435
HOP-92 = test system: HOP-92
HT-29 = test system: HT-29
SK-MEL-5 = test system: SK-MEL-5
CCRF-CEM = test system: CCRF-CEM
HCT-15 = test system: HCT-15
UACC-257 = test system: UACC-257
OVCAR-5 = test system: OVCAR-5
IGROV-1 = test system: IGROV-1
NCI-H460 = test system: NCI-H460
SF-539 = test system: SF-539

Structure (SMILES) | GI50 (KM12) | GI50 (786-0) | GI50 (SK-OV-3) | GI50 (A549) | GI50 (Hs-578T) | GI50 (UO-31) | GI50 (NCI-H23) | GI50 (T47D) | GI50 (A498) | GI50 (MDA-MB-435) | GI50 (HOP-92) | GI50 (HT-29) | GI50 (SK-MEL-5) | GI50 (CCRF-CEM) | GI50 (HCT-15) | GI50 (UACC-257) | GI50 (OVCAR-5) | GI50 (IGROV-1) | GI50 (NCI-H460) | GI50 (SF-539)
COc1ccc(/C=N/Nc2nnc3c(n2)c2ccccc2c2nn(-c4ccccc4Cl)nc23)cc1 | > 100 µM (inactive) | > 100 µM (inactive) | > 100 µM (inactive) | > 100 µM (inactive) | 71.6 µM (inactive) | > 100 µM (inactive) | > 100 µM (inactive) | > 100 µM (inactive) | > 100 µM (inactive) | > 100 µM (inactive) | > 100 µM (inactive) | > 100 µM (inactive) | > 100 µM (inactive) | > 100 µM (inactive) | > 100 µM | > 100 µM (inactive) | > 100 µM (inactive) | > 100 µM (inactive) |  | 
O=C(/C=C1\Nc2ccccc2N=C1NC12CC3CC(CC(C3)C1)C2)c1ccc(Br)cc1 | > 10 µM (inactive) | > 10 µM (inactive) | > 10 µM (inactive) | > 10 µM (inactive) | > 10 µM (inactive) | > 10 µM (inactive) | > 10 µM (inactive) | > 10 µM (inactive) | > 10 µM (inactive) | > 10 µM (inactive) |  | > 10 µM (inactive) | > 10 µM (inactive) | > 10 µM (inactive) | > 10 µM | > 10 µM (inactive) | > 10 µM (inactive) | > 10 µM (inactive) | > 10 µM (inactive) | > 10 µM (inactive)
CC12CP(=O)(c3ccccc3)CC1c1ccccc1C2c1ccccc1 (configuration not stated) | 17.3 µM (inactive) | 17.3 µM (inactive) | 40.1 µM (inactive) | 16.4 µM (inactive) | 26.3 µM (inactive) | 16.7 µM (inactive) | 20.7 µM (inactive) | 16.4 µM (inactive) | 27.7 µM (inactive) | 15.2 µM (inactive) | 22.1 µM (inactive) | 15.5 µM (inactive) | 19.1 µM (inactive) | 3.04 µM (inactive) | 13.7 µM |  | 30.9 µM (inactive) | 3.44 µM (inactive) | 14.5 µM (inactive) | 17.8 µM (inactive)
CCCC/C=C/C/C=C/CCCCCCCCC(=O)OCC1CCCN2CCCCC12 (configuration not stated) | > 100 µM (inactive) | > 100 µM (inactive) | > 100 µM (inactive) | > 100 µM (inactive) | > 100 µM (inactive) | 59.4 µM (inactive) | > 100 µM (inactive) | 12.8 µM (inactive) | > 100 µM (inactive) | > 100 µM (inactive) | 31.7 µM (inactive) | > 100 µM (inactive) | > 100 µM (inactive) | 28.5 µM (inactive) | > 100 µM | 63.2 µM (inactive) | > 100 µM (inactive) |  | > 100 µM (inactive) | > 100 µM (inactive)
c1ccc(CSc2ccccc2CN2CCN(Cc3ccccc3SCc3ccccc3)CCN(Cc3ccccc3SCc3ccccc3)CC2)cc1 | 1.58 µM (inactive) | 1.61 µM (inactive) | 2.21 µM (inactive) | 2.35 µM (inactive) | 1.85 µM (inactive) | 2.59 µM (inactive) | 0.951 µM (active) | 1.43 µM (inactive) | 2.25 µM (inactive) | 1.31 µM (inactive) | 0.359 µM (active) | 0.499 µM (active) | 1.57 µM (inactive) | 2.35 µM (inactive) | 1.61 µM | 1.39 µM (inactive) | 1.64 µM (inactive) |  | 1.19 µM (inactive) | 1.86 µM (inactive)
COC(=O)C(=O)C(C(=O)C(=O)Nc1ccc([N+](=O)[O-])cc1[N+](=O)[O-])c1nc2ccc(Cl)cc2nc1O (configuration not stated) | > 100 µM (inactive) | > 100 µM (inactive) | > 100 µM (inactive) | > 100 µM (inactive) | 25.1 µM (inactive) | 80.4 µM (inactive) | > 100 µM (inactive) | > 100 µM (inactive) | > 100 µM (inactive) | > 100 µM (inactive) | > 100 µM (inactive) | > 100 µM (inactive) | > 100 µM (inactive) | > 10 µM (inactive) | > 100 µM | > 100 µM (inactive) | > 100 µM (inactive) |  | > 100 µM (inactive) | > 100 µM (inactive)
CC(C)(C)OC(=O)NC12C3C4C1C1C2C3C41NC(=O)OC(C)(C)C (configuration not stated) | 15.8 µM (inactive) | 43.1 µM (inactive) |  | 71.9 µM (inactive) | 23.7 µM (inactive) | 39.4 µM (inactive) | 57.4 µM (inactive) | 27.3 µM (inactive) | 50.5 µM (inactive) | 51.9 µM (inactive) | 68.1 µM (inactive) | 26.9 µM (inactive) | 26.5 µM (inactive) | 21.3 µM (inactive) | 73.3 µM | 39.4 µM (inactive) | > 100 µM (inactive) | > 100 µM (inactive) | 35.6 µM (inactive) | 31 µM (inactive)
O=C1NC(Nc2cccc(Cl)c2)=N/C1=C\c1ccc(Cl)c(Cl)c1 | 3.37 µM (inactive) | 3.76 µM (inactive) | 12.4 µM (inactive) | 3.8 µM (inactive) | 3.04 µM (inactive) | 7.29 µM (inactive) | 3.44 µM (inactive) | 3.52 µM (inactive) | 4.37 µM (inactive) | 4.85 µM (inactive) | 3.48 µM (inactive) | 6.73 µM (inactive) | 6.18 µM (inactive) | 3.45 µM (inactive) | 5.28 µM | 8.07 µM (inactive) | 7.91 µM (inactive) | 5.66 µM (inactive) | 2.24 µM (inactive) | 9.31 µM (inactive)
CC1(C)CS(=O)(=O)CC(C)(C)C(=N/N)/C1=N\N | > 100 µM (inactive) | > 100 µM (inactive) | > 100 µM (inactive) | > 100 µM (inactive) | > 100 µM (inactive) |  | > 100 µM (inactive) | > 100 µM (inactive) | > 100 µM (inactive) | > 100 µM (inactive) | > 100 µM (inactive) | > 100 µM (inactive) | > 100 µM (inactive) |  | > 100 µM | > 100 µM (inactive) | > 100 µM (inactive) | > 100 µM (inactive) | > 100 µM (inactive) | > 100 µM (inactive)
Nc1ncnc2c1ncn2C(=O)NC12CC3CC(CC(C3)C1)C2 | > 100 µM (inactive) | > 100 µM (inactive) | > 100 µM (inactive) | > 100 µM (inactive) | > 100 µM (inactive) | > 100 µM (inactive) | > 100 µM (inactive) | 4.97 µM (inactive) | > 100 µM (inactive) | > 100 µM (inactive) | > 100 µM (inactive) | > 100 µM (inactive) | > 100 µM (inactive) | 44 µM (inactive) | > 100 µM | > 100 µM (inactive) | > 100 µM (inactive) |  | > 100 µM (inactive) | > 100 µM (inactive)
O=c1c(Cl)nsnc1Cl | > 38.7 µM (inactive) | 1.7 µM (inactive) | 19.1 µM (inactive) | 26.3 µM (inactive) | 30.2 µM (inactive) | 6.4 µM (inactive) | 23.3 µM (inactive) | 3.08 µM (inactive) |  | 14.2 µM (inactive) | 0.665 µM (active) | 24.2 µM (inactive) | 16.5 µM (inactive) | 0.984 µM (active) | 17.5 µM | 10.4 µM (inactive) | 20.1 µM (inactive) | 16.4 µM (inactive) | 29.3 µM (inactive) | 12.9 µM (inactive)
CC(C)CC(Nc1c(O)ccc2ccccc12)C(=O)O (configuration not stated) | 30.6 µM (inactive) | 59.3 µM (inactive) | 27.2 µM (inactive) | > 100 µM (inactive) | 21.6 µM (inactive) | 27.6 µM (inactive) | 19.5 µM (inactive) | 64.7 µM (inactive) | 23.3 µM (inactive) | 17.3 µM (inactive) |  | 81.8 µM (inactive) | 18.3 µM (inactive) | 0.959 µM (active) | 36.9 µM | 20.5 µM (inactive) | 80.7 µM (inactive) | 32.7 µM (inactive) | 35.2 µM (inactive) | 16.7 µM (inactive)
N=c1oc2ccc3ccccc3c2cc1C(N)=O | 16.7 µM (inactive) | 34 µM (inactive) | 96.2 µM (inactive) | 64.6 µM (inactive) | 15.6 µM (inactive) |  | 48.6 µM (inactive) | 22.6 µM (inactive) | 43.7 µM (inactive) | 53.6 µM (inactive) | 53 µM (inactive) | 38.7 µM (inactive) | 46.1 µM (inactive) | 35.9 µM (inactive) | 58.1 µM | > 100 µM (inactive) | > 100 µM (inactive) | 21.6 µM (inactive) | 46.3 µM (inactive) | 
CN(C)c1ccc(C(=C2C=CC(=[N+](C)C)C=C2)c2c(O)c(S(=O)(=O)[O-])cc3cc(S(=O)(=O)O)ccc23)cc1 | > 100 µM (inactive) | > 100 µM (inactive) | > 100 µM (inactive) | > 100 µM (inactive) | > 100 µM (inactive) | > 100 µM (inactive) | > 100 µM (inactive) | > 100 µM (inactive) | > 100 µM (inactive) | > 100 µM (inactive) | > 100 µM (inactive) | > 100 µM (inactive) | > 100 µM (inactive) |  | > 100 µM | > 100 µM (inactive) | > 100 µM (inactive) | > 100 µM (inactive) | > 100 µM (inactive) | > 100 µM (inactive)
COc1cc2c(c(OC)c1)C(C)=NC(C)C2 (configuration not stated) | > 100 µM (inactive) | > 100 µM (inactive) | > 100 µM (inactive) | > 100 µM (inactive) | > 100 µM (inactive) | > 100 µM (inactive) | > 100 µM (inactive) | > 100 µM (inactive) | > 100 µM (inactive) | > 100 µM (inactive) |  | > 100 µM (inactive) | > 100 µM (inactive) | > 100 µM (inactive) | > 100 µM | > 100 µM (inactive) |  | > 100 µM (inactive) | > 100 µM (inactive) | > 100 µM (inactive)

— ChEMBL document CHEMBL1201862, “PubChem BioAssay data set” (2004)
